Measured values as given in patent publication US20180353462A1, “[…] AGENTS […] FLAVONOID DERIVATIVES TARGETING KINASES, SIRTUINS AND ONCOGENIC AGENTS FOR THE TREATMENT OF CANCERS” (priority 2015, published 2018).
“And” between values parts separate entries of the source, which are not always exact repeats. Identical values can stand only once. Like-named read-outs stand apart in the source and are kept apart here.

Assays:
[1] = tested on: MOLM-14 acute myeloid leukemia cell line; assay: WST-1 anticancer cell proliferation assay, MOLM-14; assay type: cell-based; settings: Table 4, read-out: Acute Myeloid Leukemia cell lines MOLM-14 IC50
Protocol: (§1) Anticancer activity was tested against several standard cancer cell lines including brain, breast, Kaposi sarcoma, leukemia, lung, melanoma, tenosynovial giant cell tumor, ovarian, pancreatic, colon and prostate cancer. Cells were trypsinized and plated into 96 well plates in 50 μl of media and incubated overnight. The next day approximately 18 hours after plating, 50 μl of media containing the required flavonoid-based pharmaceutical composition was added per well. Cells were plated at a density so that 72 hours post drug addition, the cells will be in log phase (500)-2000 cells/well). The compounds and extracts were solubilized in Dimethyl sulfoxide (DMSO). The cells are allowed to proliferate for 72 hours 37° C. in humidified atmosphere of 5% CO2. The experiment is terminated using WST-1 (Roche®) 10 μl per well and absorbance is read at 450 nm %690 nm. The effect of drugs on growth is assessed as percent of cell viability. The IC50 values were determined from the extract dose versus control growth curves using Graphpad Prism® software. All experiments were carried out in duplicate and the mean results determined.

FLT3(ITD) = molecular target: T1, FLT3(ITD) (Homo sapiens, UniProt P36888); assay type: binding; settings: Table 4; read-out: Acute Myeloid Leukemia Kinases FLT3-ITD IC50
T1 construct: In general, full-length constructs were used for small, single domain kinases, and catalytic domain constructs for large multi-domain kinases; fused on or other part: T7 phage fusion or DNA tag for qPCR detection (general statement)
T1 sequence (P36888 1-993): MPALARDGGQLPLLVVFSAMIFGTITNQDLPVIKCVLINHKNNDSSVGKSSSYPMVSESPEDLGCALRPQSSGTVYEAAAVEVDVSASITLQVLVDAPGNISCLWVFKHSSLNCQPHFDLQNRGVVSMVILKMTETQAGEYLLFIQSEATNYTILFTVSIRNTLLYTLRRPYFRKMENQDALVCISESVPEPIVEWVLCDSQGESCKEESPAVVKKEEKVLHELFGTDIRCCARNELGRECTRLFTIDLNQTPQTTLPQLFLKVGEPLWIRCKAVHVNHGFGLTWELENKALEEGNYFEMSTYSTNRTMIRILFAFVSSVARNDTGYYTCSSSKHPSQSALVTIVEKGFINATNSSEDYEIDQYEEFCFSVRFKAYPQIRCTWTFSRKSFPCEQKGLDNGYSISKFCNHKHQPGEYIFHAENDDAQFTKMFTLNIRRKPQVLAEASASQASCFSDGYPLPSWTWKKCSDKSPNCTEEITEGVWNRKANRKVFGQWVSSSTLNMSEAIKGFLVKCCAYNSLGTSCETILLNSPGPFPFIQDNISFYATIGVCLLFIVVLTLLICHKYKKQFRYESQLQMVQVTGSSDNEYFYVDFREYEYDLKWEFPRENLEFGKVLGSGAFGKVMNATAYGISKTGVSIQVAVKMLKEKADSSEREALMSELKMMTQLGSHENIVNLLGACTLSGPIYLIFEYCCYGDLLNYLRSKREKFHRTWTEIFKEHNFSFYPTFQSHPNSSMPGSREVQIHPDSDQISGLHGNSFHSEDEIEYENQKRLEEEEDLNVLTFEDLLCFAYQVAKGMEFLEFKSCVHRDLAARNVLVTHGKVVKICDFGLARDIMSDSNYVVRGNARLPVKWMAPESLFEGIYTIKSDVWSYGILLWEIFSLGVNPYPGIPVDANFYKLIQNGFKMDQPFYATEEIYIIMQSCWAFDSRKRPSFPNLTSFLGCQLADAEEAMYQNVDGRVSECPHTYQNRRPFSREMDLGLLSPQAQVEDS
Protocol: (§2) Cannabis flavonoids and their analogs were subjected to kinase inhibition assay. The compounds were first screened at a single concentration of 10 μM in the primary assay. […] To determine the kd or IC50 values, competition binding assays were established, authenticated and executed as described previously. […] See also, Karaman et al., “A Quantitative Analysis Of Kinase Inhibitor Selectivity”, Nat. Biotechnol. […] For most assays, kinases were fused to T7 phage strains (Fabian, supra) and for the other assays, kinases were produced in HEK-293 cells after which they were tagged with DNA for quantitative PCR detection. In general, full-length constructs were used for small, single domain kinases, and catalytic domain constructs for large multi-domain kinases. […] The liganded beads were blocked with excess biotin and washed with blocking buffer (SeaBlock (Pierce), 1% BSA, 0.05% Tween 20, 1 mM DTT) to remove unbound ligand and to reduce non-specific phage binding. […] All reactions were performed in polypropylene 384-well plates in a final volume of 0.04 ml. […] The kinase concentration in the eluates was measured by quantitative PCR. An illustration of the kinase interaction process is presented below. Kd/IC50 values were determined using a standard dose response curve using the hill equation. Curves were fitted using a non-linear least square fit with the Levenberg-Marquardt algorithm.

FLT3 = molecular target: T2, FLT3 (Homo sapiens, UniProt P36888); assay type: binding; settings: Table 4; read-out: Acute Myeloid Leukemia Kinases FLT3 IC50
T2 construct: made in house
T2 sequence (P36888 27-993): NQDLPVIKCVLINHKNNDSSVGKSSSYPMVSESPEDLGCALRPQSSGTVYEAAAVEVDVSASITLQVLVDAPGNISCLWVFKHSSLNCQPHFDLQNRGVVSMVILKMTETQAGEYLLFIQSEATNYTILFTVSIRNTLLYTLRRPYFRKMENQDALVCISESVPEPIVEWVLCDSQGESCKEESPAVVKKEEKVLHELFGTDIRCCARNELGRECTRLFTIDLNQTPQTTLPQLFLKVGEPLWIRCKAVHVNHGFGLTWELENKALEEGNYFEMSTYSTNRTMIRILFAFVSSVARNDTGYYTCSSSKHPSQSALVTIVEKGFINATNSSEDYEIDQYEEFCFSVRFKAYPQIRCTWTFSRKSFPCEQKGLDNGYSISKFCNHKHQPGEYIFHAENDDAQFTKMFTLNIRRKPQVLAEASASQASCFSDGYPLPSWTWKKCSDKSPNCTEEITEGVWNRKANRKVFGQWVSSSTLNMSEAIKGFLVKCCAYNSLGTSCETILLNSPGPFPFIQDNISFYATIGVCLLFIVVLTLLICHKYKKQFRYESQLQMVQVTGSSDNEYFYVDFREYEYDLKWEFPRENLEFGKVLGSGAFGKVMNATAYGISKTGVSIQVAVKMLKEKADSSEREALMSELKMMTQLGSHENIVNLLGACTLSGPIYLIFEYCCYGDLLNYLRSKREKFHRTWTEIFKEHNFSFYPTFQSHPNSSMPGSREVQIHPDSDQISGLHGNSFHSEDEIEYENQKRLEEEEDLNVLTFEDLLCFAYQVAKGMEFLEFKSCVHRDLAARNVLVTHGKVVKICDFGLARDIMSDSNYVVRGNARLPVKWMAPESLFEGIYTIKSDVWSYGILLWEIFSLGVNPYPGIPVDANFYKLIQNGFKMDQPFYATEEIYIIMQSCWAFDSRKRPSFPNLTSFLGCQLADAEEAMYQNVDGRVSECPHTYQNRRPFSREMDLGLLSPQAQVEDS
Protocol: as §2

Normal Bone marrow = assay: Cell viability, normal bone marrow; assay type: cell-based; settings: Table 4
Protocol: as §1, with “Bioactivity of the above-described compounds has been verified by an anticancer cell proliferation assay using the WST-1 (4-[3-(4-iodophenyl)-2-(4-nitrophenyl)-2H-5-tetrazolio]-1, 3-benzene disulfonate) colorimetric assay by Roche Life Sciences®. Anticancer” for “Anticancer”

MV4-11 AML = assay: In-vivo efficacy on MV4-11 AML (mice with FLT3-mutated acute myeloid leukemia); settings: mouse
Description: The results of the anticancer activity are presented in Tables 3 and 4 (above) and in FIG. 6, Hela cells shown at (A) and CMK cells at (B) and MV4-11 and MOLT-14 acute myeloid leukemia cells.

[2] = Toxicity and safety screen, in vitro profiling
Description: This family of AML-therapeutic targets likewise has the flavone backbone (2-phenyl-1,4-benzopyrone) chemical structure, in this case more defined as shown below (see also FIG. 1B), or any pharmaceutically acceptable salt thereof: […]

MV4-11 (Leukemia) = assay: WST-1 anticancer cell proliferation assay, MV4-11; assay type: cell-based; settings: Table 4; read-out: Acute Myeloid Leukemia cell lines MV4-11 IC50
Protocol: as §1

[3] = tested on: THP-1 acute myeloid leukemia cell line; assay: WST-1 anticancer cell proliferation assay, THP-1; assay type: cell-based; settings: Table 4; read-out: Acute Myeloid Leukemia cell lines THP-1 IC50
Protocol: as §1

[4] = tested on: 60 cancer cell line panel; settings: US National Cancer Institute 60 cancer cell line panel, NSC:719330; cited from earlier work

Structure (SMILES): COc1ccc(-c2cc(=O)c3c(O)cc(O)cc3o2)cc1 [FBLGS-73]
- IC50 [1]: 3680 nM and 4860 nM
- IC50 (FLT3(ITD)): 79 nM and 46 nM
- IC50 (FLT3): 127 nM and 152 nM

Structure (SMILES): COc1cc(-c2cc(=O)c3c(O)cc(O)cc3o2)ccc1O [FBLGS-70]
- IC50 [1]: 1700 nM
- IC50 (Normal Bone marrow): > 100000 nM
- in-vivo efficacy on MV4-11 AML (MV4-11 AML): significant in-vivo efficacy
- toxicity or safety screen issues [2]: no detectable toxicity or safety screen issues
- IC50 (MV4-11 (Leukemia)): 1250 nM
- IC50 [3]: > 100000 nM

Structure (SMILES): CO[C@@H]1[C@H](N(C)C(=O)c2ccccc2)C[C@H]2O[C@]1(C)n1c3ccccc3c3c4c(c5c6ccccc6n2c5c31)C(=O)NC4 [Midostaurin, reference compound]
- IC50 ([1]; Homo sapiens, MOLM-14): 22 nM

Structure (SMILES): COc1cc(-c2cc(=O)c3c(O)c(CC=C(C)C)c(O)cc3o2)ccc1O [cannflavin B]
- cytotoxicity against cancer cells [4]: not cytotoxic
